Experimental data reported in patent US20090298813A1, “USE OF NEUROPROTECTIVE COMPOUNDS IN OBTAINING MEDICAMENTS INTENDED FOR THE TREATMENT OF NEURODEGENERATING DISEASES” (LES LABORATOIRES SERVIER, priority 2007, published 2009).

Experiments:
[1] = system: glial cells; experiment: Protection from apoptosis caused in vitro in cultures of glial cells (OGD followed by reperfusion); assay type: cell-based, Sprague Dawley rats; conditions: 10 μM throughout OGD (3 h) and reperfusion (18 h); relative to control cultures subjected to OGD and reperfusion
Description: A study was carried out to determine if the compounds of the invention protect cultures of glial cells from the apoptosis brought about by oxygen and glucose deprivation (OGD) followed by reperfusion.
Glial cells are isolated from the brains of newborn Sprague Dawley rats and cultured. They are subjected to OGD for 3 hours by being placed in a glucose-free medium under anaerobic conditions in an incubator (5% CO2, 95% N2).
Reperfusion is carried out by returning the cultures for 18 hours to the normal medium [Dulbecco's modified Eagle […] (DMEM)], to which 10% fetal calf serum, 2 mM glutamine and 50 μg/ml of gentamicin have been added.
At the end of the OGD period, the adenosine triphosphate (ATP) content of the cultures is measured in order to assess the degree of ischaemia, using the BIOLUMINESCENT kit (luciferase luminescence).
The degree of apoptosis is quantified by counting the astrocyte nuclei labelled with the DNA-specific HOECHST 33258 fluorescent dye.
The compounds of the invention are added to the medium at a concentration of 10 μM throughout the OGD and reperfusion period.
The results are expressed as the percentage reduction in cell death relative to control cultures subjected to ischaemia by means of OGD and reperfusion.

[2] = system: mixed (neurons and glia) primary embryonic mesencephalic cultures; experiment: Neuroprotective and neurotrophic effects in an in vitro model of neurodegeneration (epoxomicin); conditions: for increase in neuronal survival with respect to their control (neuroprotective): at 100 μM, in the presence of epoxomicin (50 nM), 48 hours
[3] = system: dopaminergic neurons of primary rat mesencephalic cultures; experiment: Neuroprotective effects and stimulation of the catecholaminergic phenotype in vitro (spontaneous death of dopaminergic neurons); assay type: cell-based
Description: The study is carried out in an in vitro model of primary rat mesencephalic cultures, wherein death of the dopaminergic neurons develops spontaneously and selectively when the cells mature. The culture conditions have been defined in detail in various publications (Douhou et al., J. of Neurochemistry, (2001), 78, 163-174). The culture media are changed daily and, under these conditions, the dopaminergic neurons, but not the other neurons such as GABA-ergic neurons, degenerate spontaneously. Natural trophic factors of the body such as GDNF (glial cell derived neurotrophic factor) have shown a protective effect on the dopaminergic neurons in this model.
The effects of Examples 1 and 12 were tested at 3 concentrations. The effect is analysed by measuring the rate of tritiated dopamine uptake and the number of surviving neurons by labelling the tyrosine hydroxylase with a fluorescent antibody.

[4] = system: mouse striatum; experiment: Glial reaction in a 6-OHDA model of Parkinson's disease in the mouse; assay type: in vivo; conditions: for reduction of the area occupied by the astrocytes (GFAP) in the striatum: single i.p. injection of 20 mg/kg 10 minutes after 6-OHDA, assessed at 7 days, relative to control group (6-OHDA and solvent); for microglial reactivity: single i.p. injection of 20 mg/kg
Description: Unilateral injection of 6-OHDA into the mouse striatum using a micro-syringe (0.5 μl of a solution containing 8 μg/μl) causes, from the 3rd day, degeneration of the TH-positive neurons of the striatum, which is accompanied, from the 7th day, by neuronal loss also in the substantia nigra, in accordance with that which is observed. in Parkinson's disease in humans.
The compounds of the invention are administered by the intraperitoneal route in a single injection of 20 mg/kg 10 minutes after the intracerebral injection of 6-OHDA. One group of mice is sacrificed at 3 days, the other at 7 days.

[5] = system: newborn mice; experiment: Protection from neurodegeneration caused by ibotenate in newborn mice; assay type: in vivo, mouse; conditions: 20 mg/kg i.p.; for Reduction in the size of lesions relative to the controls, cortex / Reduction in the size of lesions relative to the controls, white matter: simultaneous injection at 0 h
Description: Ibotenate, an agonist of N-methyl-D-aspartate (NMDA) receptors, when administered by the intracerebral route to the newborn mouse, brings about lesions of excitotoxic origin in the neocortex and the underlying white matter.
The ibotenate injection is performed in newborn mice aged 5 days (P5). The compounds of the invention are administered by the i.p. route at a dose of 20 mg/kg [either simultaneously] (P5), [or 8, 24 or 48 hours after induction of the lesions]. […] Cell markers were applied to the brain slices of animals sacrificed at various times after administration of ibotenate and the compound of the invention: (1) cleaved caspase-3, an apoptosis marker; (2) isolectin, a microglial activation marker; (3) glial fibrillary acidic protein (GFAP), a marker of astrogliosis.

[6] = deferred injection 8 h after ibotenate, sacrifice at 120 h
[7] = deferred injection 24 h after ibotenate, sacrifice at 120 h
[8] = deferred injection 48 h after ibotenate, sacrifice at 120 h
[9] = epoxomicin 50 nM, after 48 hours

O=C1NN2c3ccccc3C[C@H]2[C@@H]2NCCC[C@H]12 (racemic) [Example 6, (4aSR,11aSR,11bRS)-1,2,3,4,4a,11,11a,11b-Octahydro-1,6,6a-triaza-benzo[a]fluoren-5-one]
Reduction in cell death, % reduction [1]: 22%

C=CCN1CCC[C@@H]2C(=O)N3c4ccccc4C[C@@H]3[C@H]21 (racemic) [Example 11, (4aSR,11aRS,11bSR)-1-Allyl-1,2,3,4,4a,11,11a,11b-octahydropyrido[2′,3′:3,4]pyrrolo-[1,2-a]indol-5-one]
Reduction in cell death, % reduction [1]: 44%

O=C1NC(=O)N2c3ccccc3[C@@H]3CCN4CCC[C@@H]1[C@@H]4[C@@H]32 (single isomer, unassigned) [Example 7, (5aS,12aR,12bR,12cR)- or (5aR,12aS,12bS,12cS)-2,3,5a,12a,12b,12c-Hexahydro-1H,4H-3a,9b,11-triazabenzo[a]naphtho[2,1,8-cde]azulene-10,12(5H,11H)-dione (enantiomer α)]
Reduction in cell death, % reduction [1]: 35%

O=C1NC(=O)N2c3ccccc3C3CCN4CCCC1C4C32 (single isomer, unassigned) [Example 8, (5aS,12aR,12bR,12cR)- or (5aR,12aS,12bS,12cS)-2,3,5a,12a,12b,12c-Hexahydro-1H,4H-3a,9b,11-triazabenzo[a]naphtho[2,1,8-cde]azulene-10,12(5H,11H)-dione (enantiomer ,β)]
increase in neuronal survival with respect to their control (neuroprotective) [2]: ~75%

Cl.O=C1NN2c3ccc(Cl)cc3C3CCN4CCCC1C4C32 (single isomer, unassigned; (+)) [Example 1, (+) (2RS,7SR),(3RS,16RS)-10-Chloro-15-oxo-2,7,14,15-tetrahydro-14-aza-20,21-dinoreburnameninium chloride]
cell survival (number of surviving neurons, tyrosine hydroxylase labelling) [3]: significantly increase | rate of tritiated dopamine uptake [3]: significantly increase | reduction of the area occupied by the astrocytes (GFAP) in the striatum [4]: 13% | Reparatory effect: reduction in the size of lesions relative to the controls, cortex [5, 6]: 57% | Reparatory effect: reduction in the size of lesions relative to the controls, white matter [5, 6]: 59% | Reparatory effect: reduction in the size of lesions relative to the controls, cortex [5, 7]: 39% | Reparatory effect: reduction in the size of lesions relative to the controls, white matter [5, 7]: 61% | Reparatory effect: reduction in the size of lesions relative to the controls, cortex [5, 8]: 10% | Reparatory effect: reduction in the size of lesions relative to the controls, white matter [5, 8]: 26% | Reduction in the intensity of markers relative to the controls, GFAP (astrogliosis) ([5]; sacrifice at 8 h): 24% | Reduction in the intensity of markers relative to the controls, Isolectin (microglial activation) ([5]; sacrifice at 8 h): 39% | Reduction in the intensity of markers relative to the controls, Cleaved caspase-3 (apoptosis) ([5]; sacrifice at 24 h): 66% | Reduction in the intensity of markers relative to the controls, Isolectin (microglial activation) ([5]; sacrifice at 24 h): 39% | Reduction in the intensity of markers relative to the controls, Cleaved caspase-3 (apoptosis) ([5]; sacrifice at 48 h): 71% | Reduction in the intensity of markers relative to the controls, GFAP (astrogliosis) ([5]; sacrifice at 48 h): 25% | Reduction in the intensity of markers relative to the controls, Isolectin (microglial activation) ([5]; sacrifice at 48 h): 35% | Reduction in the intensity of markers relative to the controls, GFAP (astrogliosis) ([5]; sacrifice at 72 h): 31% | Reduction in the intensity of markers relative to the controls, Isolectin (microglial activation) ([5]; sacrifice at 72 h): 35% | Reduction in the intensity of markers relative to the controls, GFAP (astrogliosis) ([5]; sacrifice at 120 h): 39% | Reduction in the intensity of markers relative to the controls, Isolectin (microglial activation) ([5]; sacrifice at 120 h): 41% | Reduction in the size of lesions relative to the controls, cortex ([5]; sacrifice at 8 h): 39% | Reduction in the size of lesions relative to the controls, white matter ([5]; sacrifice at 8 h): 66% | Reduction in the size of lesions relative to the controls, cortex ([5]; sacrifice at 24 h): 40% | Reduction in the size of lesions relative to the controls, white matter ([5]; sacrifice at 24 h): 61% | Reduction in the size of lesions relative to the controls, cortex ([5]; sacrifice at 48 h): 44% | Reduction in the size of lesions relative to the controls, white matter ([5]; sacrifice at 48 h): 52% | Reduction in the size of lesions relative to the controls, cortex ([5]; sacrifice at 72 h): 52% | Reduction in the size of lesions relative to the controls, white matter ([5]; sacrifice at 72 h): 56% | Reduction in the size of lesions relative to the controls, cortex ([5]; sacrifice at 120 h): 46% | Reduction in the size of lesions relative to the controls, white matter ([5]; sacrifice at 120 h): 62% | Reduction in cell death, % reduction [1]: 70%

CN1CCN(CCN2CCC=C(C(=O)Nn3ccc4cc(Cl)ccc43)C2)CC1 [Example 3, N-(5-Chloroindol-1-yl)-1-[2-(4-methylpiperazin-1-yl)ethyl]-1,2,5,6-tetrahydropyridine-3-carboxamide]
reduction of the area occupied by the astrocytes (GFAP) in the striatum [4]: 28% | microglial reactivity ([4]; at 3 days): remains increased | microglial reactivity ([4]; at 7 days): reduced | Reduction in the intensity of markers relative to the controls, Cleaved caspase-3 (apoptosis) ([5]; sacrifice at 24 h): 56% | Reduction in the intensity of markers relative to the controls, Isolectin (microglial activation) ([5]; sacrifice at 24 h): 50% | Reduction in the intensity of markers relative to the controls, GFAP (astrogliosis) ([5]; sacrifice at 120 h): 44% | Reduction in the size of lesions relative to the controls, cortex ([5]; sacrifice at 24 h): 53% | Reduction in the size of lesions relative to the controls, white matter ([5]; sacrifice at 24 h): 70% | Reduction in the size of lesions relative to the controls, cortex ([5]; sacrifice at 120 h): 50% | Reduction in the size of lesions relative to the controls, white matter ([5]; sacrifice at 120 h): 56%

CCOC(=O)C1=CCCN(CCN2CCC=C(C(=O)Nn3ccc4ccccc43)C2)C1 [Example 4, N-(Indol-1-yl)-1-[2-[3-(ethoxycarbonyl)-1,2,5,6-tetrahydropyridin-1-yl]ethyl]-1,2,5,6-tetrahydropyridine-3-carboxamide]
Reduction in cell death, % reduction [1]: 60%

CN1CCN(CCN2CCC=C(C(=O)Nn3ccc4ccccc43)C2)CC1 [Example 9, N-(Indol-1-yl)-1-[2-(4-methylpiperazin-1-yl)ethyl]-1,2,5,6-tetrahydropyridine-3-carboxamide]
EC50 ([2]; Rattus norvegicus, Neuron, 48 h, read-out: EC50 (neurotrophic)): 10.5 µM | Reduction in the size of lesions relative to the controls, cortex ([5]; sacrifice at 120 h): 50% | Reduction in the size of lesions relative to the controls, white matter ([5]; sacrifice at 120 h): 56% | Reduction in cell death, % reduction [1]: 44%

O=C(Nn1ccc2ccccc21)C1=CCCN(CCN2CCCCC2)C1 [Example 10, N-(Indol-1-yl)-1-(2-piperidin-1-yl-ethyl)-1,2,5,6-tetrahydropyridine-3-carboxamide]
Reduction in cell death, % reduction [1]: 60%

O=C(Nc1cccnc1)Nn1ccc2ccccc21 [Example 12, N-(1H-Indol-1-yl)-N′-(3-pyridyl)urea]
cell survival (number of surviving neurons, tyrosine hydroxylase labelling) [3]: significantly increase | rate of tritiated dopamine uptake [3]: significantly increase | Reduction in the size of lesions relative to the controls, cortex ([5]; sacrifice at 120 h): 64% | Reduction in the size of lesions relative to the controls, white matter ([5]; sacrifice at 120 h): 58% | Reduction in cell death, % reduction [1]: 59%

O=C(Nc1cccnc1)NN1CCc2ccccc21 [Example 13, N-(2,3-Dihydro-1H-indol-1-yl)-N′-(3-pyridyl)urea]
increase in neuronal survival with respect to their control (neuroprotective) [2]: ~145% | Reduction in the size of lesions relative to the controls, cortex ([5]; sacrifice at 120 h): 28% | Reduction in the size of lesions relative to the controls, white matter ([5]; sacrifice at 120 h): 11%

CC[C@H](C)[C@H](NC(=O)[C@H]([C@@H](C)CC)N(C)C(C)=O)C(=O)N[C@H](C(=O)N[C@@H](CC(C)C)C(=O)[C@@]1(C)CO1)[C@@H](C)O [epoxomicin, reference compound]
loss over all of the cell population relative to the cells not treated with epoxomicin [2, 9]: less than 70% | neuronal loss relative to the untreated cells [2, 9]: 82%
